According to US20170291890A1 (Epizyme, Inc., priority 2014, published 2017):
pIC50: −log10 of the molar value.

Biological target: T1, KDM4A (Homo sapiens, UniProt O75164)
T1 construct: N-terminal His-tagged KDM4A^1-350 was purchased from BPS Biosciences; His (N); purchased BPS Biosciences
T1 sequence (O75164 1-350): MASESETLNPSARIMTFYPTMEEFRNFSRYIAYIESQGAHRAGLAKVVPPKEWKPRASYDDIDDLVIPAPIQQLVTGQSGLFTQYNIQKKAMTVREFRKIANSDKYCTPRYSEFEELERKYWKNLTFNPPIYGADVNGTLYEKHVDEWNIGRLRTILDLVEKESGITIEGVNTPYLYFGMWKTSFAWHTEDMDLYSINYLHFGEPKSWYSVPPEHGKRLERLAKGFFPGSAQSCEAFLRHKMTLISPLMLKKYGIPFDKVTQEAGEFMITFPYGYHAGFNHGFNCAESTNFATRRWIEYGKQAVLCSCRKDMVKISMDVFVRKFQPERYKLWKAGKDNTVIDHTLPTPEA
Experiment: KDM4A Assay (SAMDI mass spectrometry demethylase assay)
Assay type: biochemical
Conditions: N-terminal His-tagged KDM4A 1-350; class symbols; read-out: 4A IC50
Protocol: N-terminal His-tagged KDM4A^1-350 was purchased from BPS Biosciences. Peptides were synthesized by BioPeptide and all other reagents were purchased from Sigma-Aldrich at the highest level of purity possible. Assays were performed in a 50 μL volume in 384-well V-bottom polypropylene microplates (Greiner) at 25° C. Optimized 1× assay buffer was 50 mM HEPES (pH=8.0), 100 μM sodium ascorbate, 20 mM NaCl, 10 μM ammonium iron sulfate, 1 mM tris(2-carboxyethyl)phosphine (TCEP), 0.002% Tween-20, and 0.005% BSG. For compound screening, 35 μL of KDM4A^1-350 (final concentration, f.c.=5 nM) was added using a Multidrop Combi and preincubated with 1 μL of test compound (f.c.=10 μM) for 30 minutes and subsequently 15 μL of peptide with the following sequence NH2-ARTKQTAR(Kme2)STGGKAPRKQLA(K-Ahx-Biotin)-amide (f.c.=600 nM) and 2-oxoglutarate (f.c.=5 μM) was added by Multidrop Combi to begin the reaction. Reactions proceeded for 120 minutes and were stopped by the addition of 5 μL of formic acid (f.c.=0.5%) using a Multidrop Combi and then analyzed by SAMDI Tech Inc.
SAMDI Tech analyzed all reactions using self-assembled monoloayer desorption/ionization technology as previously described (Gerard-Levin Z A, Scholle M D, Eisenberg A H, et al.: High-throughput screening of small molecule libraries using SAMDI mass spectrometry. ACS Comb Sci 2011; 13:347-350). Briefly, a 2 μL sample of the stopped demethylase reactions were transferred to a SAMDI array coated with 384 biotin-neutravidin spots using a 384-channel pipet station. The SAMDI arrays were incubated for 1 h in a humidified chamber, followed by washing of the surface with deionized ultra-filtered water (DIUF) and drying under nitrogen. A matrix of 30 mg/ml 2′,4′,6′-Trihydroxyacetophenone monohydrate (THAP) in acetone was applied using a TPP Mosquito 1.2 μL tip by dispensing 50 nL on each of the 384 spots on the array. SAMDI-MS was run using acquisition method ReflectorPositiveUTX. The % conversion of substrate to product was calculated using the AUC of the substrate and product peptide peaks.
An IC50 value was determined by contacting various concentrations of a test compound with one of the KDM4A, KDM4C or KDMSC enzyme constructs and plotting a dose-response curve which associates the amount of inhibition of the enzyme relative to the concentration of the test compound. From the curve, the IC50 value (which represents the concentration of the test compound necessary to inhibit maximal enzymatic activity by 50%) was determined. Additionally, the slope of the linear range of the plotted curve, which indicates the speed with which the curve rises between the minimum and maximum, was calculated.

Row | SMILES | pIC50
1 | Cc1c(Nc2cnccc2C(=O)O)cnn1-c1ccccc1 [Compound 20, 3-((5-methyl-1-phenyl-1H-pyrazol-4-yl)amino)isonicotinic acid] | 7.00 to 9.00
2 | Cc1c(-c2ccccc2)nn(CCN2CCC(F)(F)CC2)c1Nc1cnccc1C(=O)O [Compound 66, 3-((1-(2-(4,4-difluoropiperidin-1-yl)ethyl)-4-methyl-3-phenyl-1H-pyrazol-5-yl)amino)isonicotinic acid] | 4.00 to 5.00
3 | Cc1nn(-c2ccc(O)cc2)c(C)c1Nc1cnccc1C(=O)O [Compound 76, 3-((1-(4-hydroxyphenyl)-3,5-dimethyl-1H-pyrazol-4-yl)amino)isonicotinic acid] | 6.00 to 7.00
4 | Cc1nn(C2CCCNCC2)cc1Nc1cnccc1C(=O)O (single isomer, unassigned) [Compound 116] | 6.00 to 7.00
5 | CNC(=O)c1cccc(-n2ncc(Nc3cnccc3C(=O)O)c2C)c1 [Compound 59, 3-((5-methyl-1-(3-(methylcarbamoyl)phenyl)-1H-pyrazol-4-yl)amino) isonicotinic acid] | 7.00 to 9.00

Further lines, results first:

Row | pIC50 | SMILES
6 | 6.00 to 7.00 | Cc1cc(Nc2cnccc2C(=O)O)n(-c2ccccc2)n1 [Compound 61, 3-((3-methyl-1-phenyl-1H-pyrazol-5-yl)amino) isonicotinic acid]
7 | 5.00 to 6.00 | O=C(O)c1ccncc1Nc1cc(-c2ccccc2)nn1[C@H]1CC[C@H](O)CC1 [Compound 39, 3-((1-((trans)-4-hydroxycyclohexyl)-3-phenyl-1H-pyrazol-5-yl)amino)isonicotinic acid]
